Assay [1] relates to ACHN cells. The assay is described as follows: Sulfation of versican in [35S]sulfate-labeled ACHN cells. In kind it is cell-based. The following applies: 30 mM sodium chlorate, relative to the case without treatment. The method, then:
(§1) ACHN cells were pre-incubated at 37° C. for 6 hours in RPMI 1640 containing 10% by weight of bovine fetal serum in the presence or absence of 30 mM sodium chlorate. A confluent monolayer of the resulting ACHN cells was labeled by incubation for 18 hours in the presence or absence of 30 mM sodium chlorate, in a medium of either of:
(i) Eagle minimum basal medium SMEM [sulfate-free; manufactured by BioWhittaker] containing 2% by weight of dialyzed bovine fetal serum in the presence of 0.2 mCi/ml [^35S]Na2SO4 [trade name: Sulfer-35; manufactured by ICN Radiochemicals], or
(ii) methionine-free RPMI 1640 medium [manufactured by Invitrogen] containing 2% by weight of dialyzed bovine fetal serum in the presence of 0.2 mCi/ml [^35S]-methionine [manufactured by ICN Radiochemicals].
Immunoprecipitation was performed as follows, according to the method described in the publication of Kawashima, H. et al. [Int. Immunol., 11, 393-405 (1999); all teachings of which are hereby incorporated by reference] except that beads were washed using buffer A (0.05% Tween 20, 20 mM HEPES-NaOH, 0.15M NaCl, 1 mM CaCl2, 1 mM MgCl2, pH6.8). […]
(§2) Thereafter, the beads were washed with the buffer A, to obtain precipitates. The resulting precipitates were subjected to SDS-agarose-PAGE, and thereafter, signal ascribed to ^35S label on a gel was detected by autoradiography.

In assay [2] the target is T1, L-selectin-Ig (Homo sapiens, UniProt P14151).
T1 construct: purchased R & D Systems Inc
The assay is described as follows: Immunoprecipitation of versican from ACHN conditioned medium with L-selectin-Ig. Format: binding. The following applies: 30 mM sodium chlorate; ACHN cells; FIG. 1. How it is done:
as §1
(§3) Immunoprecipitation was performed as follows, according to the method described in the publication of Kawashima, H. et al. [Int. Immunol., 11, 393-405 (1999); all teachings of which are hereby incorporated by reference] except that beads were washed using buffer A (0.05% Tween 20, 20 mM HEPES-NaOH, 0.15M NaCl, 1 mM CaCl2, 1 mM MgCl2, pH6.8).
(§4) Each of the antibody and the Ig chimera shown in FIG. 1 (equivalent to 10 μg) was coupled to Protein A-Sepharose column (equivalent to 10 μL) by a conventional method, to obtain antibody-coupled Protein A-Sepharose or Ig chimera-coupled Protein A-Sepharose. […]
as §2

The subject of assay [3] is P-selectin-Ig. Briefly: Immunoprecipitation of versican from ACHN conditioned medium with P-selectin-Ig. Format: binding. The settings on record: 30 mM sodium chlorate; ACHN cells; FIG. 1. How it is done: as §1, §3, §4, §2
The subject of assay [4] is CD44-Ig. Briefly: Immunoprecipitation of versican from ACHN conditioned medium with CD44-Ig. In kind it is binding, human. The settings on record: 30 mM sodium chlorate; ACHN cells; FIG. 1. The method, then: as §1, §3, §4, §2

The structures appear in SMILES notation.

T1 sequence (P14151 with tags, fused parts or gaps limits assumed): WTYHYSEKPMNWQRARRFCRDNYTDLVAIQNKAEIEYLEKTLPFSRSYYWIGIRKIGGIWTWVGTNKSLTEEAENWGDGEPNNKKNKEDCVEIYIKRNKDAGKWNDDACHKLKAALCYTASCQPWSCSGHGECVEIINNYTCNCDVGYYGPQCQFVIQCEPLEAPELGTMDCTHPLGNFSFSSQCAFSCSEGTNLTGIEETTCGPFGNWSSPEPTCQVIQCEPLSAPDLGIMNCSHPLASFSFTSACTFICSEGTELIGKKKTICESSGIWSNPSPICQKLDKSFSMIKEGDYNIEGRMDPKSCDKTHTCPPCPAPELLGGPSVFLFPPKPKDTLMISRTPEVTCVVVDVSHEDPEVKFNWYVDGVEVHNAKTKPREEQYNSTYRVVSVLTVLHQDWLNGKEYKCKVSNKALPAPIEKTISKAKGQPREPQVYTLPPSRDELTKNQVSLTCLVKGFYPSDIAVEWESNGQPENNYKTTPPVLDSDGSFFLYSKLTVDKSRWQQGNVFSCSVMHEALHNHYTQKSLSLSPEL

`[Na+].[O-][Cl+2]([O-])[O-]` [sodium chlorate]: the inhibition of sulfation result in assay [1] is recorded as “more than 90%”. In addition, the “effect of treatment on interaction between versican and L-selectin-Ig” value in assay [2] is listed as “inhibited”. In assay [3], the “effect of treatment on interaction between versican and P-selectin-Ig” value is recorded as “inhibited”. Moreover, in assay [4], the “effect of treatment on interaction between versican and CD44-Ig” value is “not inhibited”.
